Tests used:
Assay in all cases: relative viability (nuclei count vs DMSO), 5 days (fraction); higher = more cells survive
TPCA-1 + Luminespib = compound: C1=CC(=CC=C1C2=CC(=C(S2)NC(=O)N)C(=O)N)F [TPCA-1] + CCNC(=O)c1noc(-c2cc(C(C)C)c(O)cc2O)c1-c1ccc(CN2CCOCC2)cc1 [Luminespib] (partner 0.01 µM)
How it was run: (§1)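 One day after seeding in 1536-well plates, lung cancer cell lines were dosed by pin tool. Dosing was either single-drug or a fixed anchor-drug dose plus five library-drug doses (not always all listed) in √10 steps. After 5 days, nuclei were stained in one fix-and-stain step and counted on 4× images, and relative viability is the nuclei count of treated wells over that of vehicle wells, given as the median of duplicate plates.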

[1] = compound: C[C@]12O[C@H](C[C@]1(O)CO)n1c3ccccc3c3c4c(c5c6ccccc6n2c5c31)CNC4=O [Lestaurtinib] + CCNC(=O)c1noc(-c2cc(C(C)C)c(O)cc2O)c1-c1ccc(CN2CCOCC2)cc1 [Luminespib] (partner 0.01 µM)
How it was run: as §1

[2] = compound: C[C@]12O[C@H](C[C@]1(O)CO)n1c3ccccc3c3c4c(c5c6ccccc6n2c5c31)CNC4=O [Lestaurtinib] + C[C@@H](Oc1cc(-c2cnn(C3CCNCC3)c2)cnc1N)c1c(Cl)ccc(F)c1Cl [Crizotinib] (partner 1 µM)
How it was run: as §1

[3] = compound: C[C@]12O[C@H](C[C@]1(O)CO)n1c3ccccc3c3c4c(c5c6ccccc6n2c5c31)CNC4=O [Lestaurtinib] + N=C(N)NC(=N)NCCc1ccccc1 [Phenformin] (partner 250 µM)
How it was run: as §1

Cell Line	relative viability (TPCA-1 + Luminespib; first compound 0.04 µM)	relative viability (TPCA-1 + Luminespib; first compound 0.1265 µM)	relative viability (TPCA-1 + Luminespib; first compound 0.4 µM)	relative viability (TPCA-1 + Luminespib; first compound 1.265 µM)	relative viability (TPCA-1 + Luminespib; first compound 4 µM)	relative viability ([1]; first compound 0.005 µM)	relative viability ([1]; first compound 0.01581 µM)	relative viability ([1]; first compound 0.05 µM)	relative viability ([1]; first compound 0.1581 µM)	relative viability ([1]; first compound 0.5 µM)	relative viability ([2]; first compound 0.005 µM)	relative viability ([2]; first compound 0.01581 µM)	relative viability ([2]; first compound 0.05 µM)	relative viability ([2]; first compound 0.1581 µM)	relative viability ([2]; first compound 0.5 µM)	relative viability ([3]; first compound 0.005 µM)	relative viability ([3]; first compound 0.01581 µM)	relative viability ([3]; first compound 0.05 µM)	relative viability ([3]; first compound 0.1581 µM)	relative viability ([3]; first compound 0.5 µM)
HCC-827	0.675	0.496	0.531	0.598	0.201	0.332	0.505	0.344	0.289	0.33	0.911	1.08	0.85	0.71	0.335	0.359	0.44	0.36	0.316	0.265
NCI-H650	0.858	0.788	0.849	0.499	0.328	0.824	0.703	0.635	0.322	0.239	0.744	0.764	0.509	0.414	0.226	0.427	0.415	0.362	0.265	0.314
CAL-12T	0.462	0.351	0.196	0.294	0.194	0.484	0.52	0.556	0.256	0.06	0.555	0.747	0.409	0.487	0.272	0.488	0.622	0.375	0.32	0.189
EPLC-272H	0.265	0.262	0.443	0.38	0.207	0.196	0.235	0.184	0.241	0.133	0.939	0.65	0.458	0.574	0.581	0.273	0.306	0.281	0.225	0.125
A-427	1.01	0.873	0.935	0.902	0.637	1.03	0.797	0.649	0.298	0.185	0.999	0.842	0.501	0.411	0.125	0.339	0.3	0.23	0.225	0.149
NCI-H647	0.149	0.192	0.157	0.102	0.134	0.153	0.115	0.12	0.0972	0.0647	0.93	1.12	0.624	0.225	0.141	0.354	0.444	0.181	0.11	0.104
NCI-H1975	0.577	0.275	0.2	0.199	0.129	0.538	0.171	0.199	0.137	0.159	0.943	0.988	0.707	0.867	0.586	0.464	0.44	0.363	0.353	0.275
NCI-H358	0.286	0.366	0.279	0.266	0.125	0.446	0.325	0.378	0.149	0.121	0.61	0.297	0.402	0.31	0.0912	0.338	0.295	0.208	0.137	0.0849
PC-3 [JPC-3]	0.5	0.639	0.682	0.675	0.569	0.647	0.645	0.53	0.525	0.255	0.975	1.15	1.01	1.15	0.693	0.434	0.504	0.352	0.477	0.386
NCI-H1792	0.429	0.237	0.446	0.501	0.367	–	0.618	0.332	0.464	0.158	0.901	1.18	0.49	0.799	0.476	–	0.423	0.3	0.179	0.178
NCI-H596	0.988	1.08	0.897	1.11	1.08	0.959	1.12	1.03	1.27	0.953	0.851	1.05	0.805	1.02	0.923	0.699	0.88	0.557	0.882	0.723
RERF-LC-KJ	1.3	1.25	1.26	1.14	0.852	1.1	1.55	0.828	0.959	0.417	0.856	0.969	0.674	0.799	0.6	0.448	0.38	0.391	0.419	0.295
NCI-H322M	1	0.812	0.984	1.01	0.366	0.773	0.713	0.449	0.337	0.329	0.931	0.919	0.495	0.482	0.41	0.689	0.694	0.478	0.517	0.393
COR-L 105	0.782	0.658	0.766	0.738	0.648	0.843	0.826	0.532	0.67	0.263	0.703	1.02	0.684	0.618	0.233	0.465	0.476	0.371	0.353	0.238
NCI-H1993	0.694	0.688	0.783	1.29	0.669	0.692	0.442	0.831	0.523	0.569	0.936	0.971	0.819	0.635	0.548	0.559	0.547	0.527	0.457	0.486
NCI-H1437	1.04	1.14	1.03	1.12	1.2	1.21	1.26	1.06	1.16	0.962	0.863	0.897	0.906	0.887	0.674	0.343	0.349	0.241	0.292	0.16

Source: the supplement of paper PMC10307832
